Data: PubChem BioAssay (NCI)
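Following 48 hours of exposure in 96-well plates, responses at five concentrations were used to interpolate endpoints linearly. TGI: concentration producing complete growth inhibition.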

What was measured:
Assay in all cases: NCI tumour cell line growth inhibition, 48 h
A549 NSCLC = system: A549 NSCLC
EKVX NSCLC = system: EKVX NSCLC
HCT-116 colon = system: HCT-116 colon
K-562 leukemia = system: K-562 leukemia
M14 melanoma = system: M14 melanoma
MOLT-4 leukemia = system: MOLT-4 leukemia
SF-295 CNS = system: SF-295 CNS
SF-539 CNS = system: SF-539 CNS
TK-10 renal = system: TK-10 renal
UACC-257 melanoma = system: UACC-257 melanoma

Compound | TGI (A549 NSCLC) | TGI (EKVX NSCLC) | TGI (HCT-116 colon) | TGI (K-562 leukemia) | TGI (M14 melanoma) | TGI (MOLT-4 leukemia) | TGI (SF-295 CNS) | TGI (SF-539 CNS) | TGI (TK-10 renal) | TGI (UACC-257 melanoma)
CCOC(=O)C1=C(C)N(c2ccccc2)C2=C(C(=O)N(c3ccccc3)C2c2ccccc2)C1c1ccccc1 (stereo not given) | > 100 µM | > 100 µM | > 100 µM | > 100 µM | > 100 µM | > 100 µM | > 100 µM | > 100 µM | > 100 µM | > 100 µM
COc1ccc(/C(=C/n2ccnc2)C(=O)c2ccc(OC)c(OC)c2)cc1 | > 100 µM | > 100 µM | > 100 µM | > 100 µM | > 100 µM | > 100 µM | – | > 100 µM | > 100 µM | > 100 µM
CC(C)C(Sc1nc(-c2ccccc2)c(-c2ccccc2)[nH]1)C(=O)NNC(=S)Nc1ccccc1 (stereo not given) | 60.9 µM | 61.4 µM | 42.2 µM | – | 30.6 µM | 33 µM | 35.5 µM | 35.8 µM | > 100 µM | 33.5 µM
O=C1NC(c2ccc(O)cc2)C2CCC1C2 (stereo not given) | > 100 µM | > 100 µM | > 100 µM | > 100 µM | > 100 µM | > 100 µM | > 100 µM | – | > 100 µM | > 100 µM
CC(C)CC(N)C(=O)OCN1C(=O)C2C3C=CC(C2C1=O)C1C2C(=O)N(COC(=O)C(N)CC(C)C)C(=O)C2C31 (stereo not given) | > 100 µM | > 100 µM | > 60.5 µM | > 100 µM | > 100 µM | > 100 µM | > 100 µM | > 100 µM | > 100 µM | > 100 µM
C/C(=N\NC(=S)NC(C)C)c1nc2ncccc2[nH]1 | > 100 µM | > 69.7 µM | > 100 µM | > 100 µM | > 100 µM | > 100 µM | 35.6 µM | > 85 µM | 73.8 µM | > 100 µM
Cc1c(Cl)cccc1NC(=O)C(=O)C1C(=O)CC(C)(C)CC1=O | > 100 µM | > 100 µM | > 100 µM | > 100 µM | > 100 µM | > 100 µM | > 100 µM | > 100 µM | > 100 µM | > 100 µM
COC1(C)CC2N(C(=O)c3ccccc3)N=C(c3ccccc3)CC2(C)O1 (stereo not given) | > 100 µM | – | > 100 µM | > 100 µM | > 100 µM | > 100 µM | > 100 µM | > 100 µM | – | > 100 µM
COc1ccc(C2C(Cl)C(=O)N2NC(=O)c2ccc(NC(C)=O)cc2)cc1 (stereo not given) | > 100 µM | > 100 µM | > 100 µM | > 100 µM | > 100 µM | > 100 µM | > 100 µM | > 100 µM | > 100 µM | > 100 µM
